Molecular target: IDH1 R132H (Homo sapiens (Human), UniProt O75874, R132H)
Experiment: In vitro assay for IDH1m (R132H) inhibitors, NADPH depletion with resazurin/resorufin detection
Format: biochemical
Settings: IDH1 R132H enzyme, 50 minutes at room temperature; read-out: IDH R132H IC50
Method: Assays were conducted in a volume of 76 μl assay buffer (150 mM NaCl, 10 mM MgCl2, 20 mM Tris pH 7.5, 0.03% bovine serum albumin) as follows in a standard 384-well plate: To 25 ul of substrate mix (8 uM NADPH, 2 mM aKG), 1 μl of test compound was added in DMSO. The plate was centrifuged briefly, and then 25 μl of enzyme mix was added (0.2 μg/ml IDH1 R132H) followed by a brief centrifugation and shake at 100 RPM. The reaction was incubated for 50 minutes at room temperature, then 25 μl of detection mix (30 μM resazurin, […]) was added and the mixture further incubated for 5 minutes at room temperature. The conversion of resazurin to resorufin was detected by fluorescent spectroscopy at Ex544 Em590 c/o 590.
Representative compounds of formula (I) set forth in Tables 1 and 2 were tested in this assay and the results are set forth below in Table 4.

Chain of IDH1 R132H (O75874 whole entry R132H): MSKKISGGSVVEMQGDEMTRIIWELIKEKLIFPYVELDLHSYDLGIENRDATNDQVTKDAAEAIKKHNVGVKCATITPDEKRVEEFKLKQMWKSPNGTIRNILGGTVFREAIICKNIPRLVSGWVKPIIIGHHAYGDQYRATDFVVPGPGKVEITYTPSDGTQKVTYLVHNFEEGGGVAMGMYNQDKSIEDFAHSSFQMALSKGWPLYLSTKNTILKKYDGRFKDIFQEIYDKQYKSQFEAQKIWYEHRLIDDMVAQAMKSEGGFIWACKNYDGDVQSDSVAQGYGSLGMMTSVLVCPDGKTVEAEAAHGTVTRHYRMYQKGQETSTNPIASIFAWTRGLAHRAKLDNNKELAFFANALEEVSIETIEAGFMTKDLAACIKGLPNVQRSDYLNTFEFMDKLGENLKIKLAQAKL

Compound: Cc1cc(Cl)ccc1NC(=O)Nc1ccc(C)c(S(=O)(=O)Nc2ccc(Cl)cc2)c1 [Compound 236]
- IC50: 1 to 10 µM

Compound: Cc1ccc(NC(=O)Nc2ccc(C(F)(F)F)cc2)cc1S(=O)(=O)Nc1ccc(OCC(=O)O)cc1 [Compound 326]
- IC50: 1 to 10 µM

Compound: Cc1cc(C)cc(NC(=O)Nc2ccc(C)c(S(=O)(=O)Nc3ccc(Cl)cc3)c2)c1 [Compound 260]
- IC50: 1 to 10 µM

Compound: Cc1ccc(NC(=O)Nc2ccc3ccccc3c2)cc1S(=O)(=O)Nc1ccc(Cl)cc1 [Compound 287]
- IC50: 1 to 10 µM

Compound: Cc1ccc(NC(=O)Nc2cc(Cl)c(Cl)cc2Cl)cc1S(=O)(=O)Nc1ccc(Cl)cc1 [Compound 246]
- IC50: 1 to 10 µM

Compound: Cc1ccc(F)cc1NC(=O)Nc1ccc(C)c(S(=O)(=O)Nc2ccc(Cl)cc2)c1 [Compound 241]
- IC50: 1 to 10 µM

Compound: Cc1ccc(NC(=O)Nc2ccsc2)cc1S(=O)(=O)Nc1ccc(Cl)cc1 [Compound 289]
- IC50: 1 to 10 µM

Compound: COc1cccc(NC(=O)Nc2ccc(C)c(S(=O)(=O)Nc3ccc(Cl)cc3)c2)c1 [Compound 266]
- IC50: 1 to 10 µM

Compound: Cc1ccc(NC(=O)Nc2cccc(C(F)(F)F)c2)cc1S(=O)(=O)Nc1ccc(O)cc1 [Compound 304, N-(4-hydroxyphenyl)-2-methyl-5-(3-(3-(trifluoromethyl)phenyl)ureido)benzenesulfonamide]
- IC50: ≤ 1 µM

Compound: CSc1ccc(NC(=O)Nc2ccc(C)c(S(=O)(=O)Nc3ccc(Cl)cc3)c2)cc1 [Compound 274]
- IC50: 1 to 10 µM

Compound: Cc1ccc(NC(=O)Nc2ccccc2)cc1S(=O)(=O)Nc1ccc(Cl)cc1 [Compound 213]
- IC50: 1 to 10 µM

Compound: Cc1cc([N+](=O)[O-])ccc1NC(=O)Nc1ccc(C)c(S(=O)(=O)Nc2ccc(Cl)cc2)c1 [Compound 262]
- IC50: 1 to 10 µM

Compound: Cc1ccc(NC(=O)Nc2ccc(F)c(F)c2)cc1S(=O)(=O)Nc1ccc(Cl)cc1 [Compound 230]
- IC50: 1 to 10 µM

Compound: Cc1ccc(NC(=O)Nc2ccc(F)c(Cl)c2)cc1S(=O)(=O)Nc1ccc(Cl)cc1 [Compound 228]
- IC50: 1 to 10 µM

Compound: CC(=O)Nc1ccc(NS(=O)(=O)c2cc(NC(=O)Nc3ccc(C(F)(F)F)cc3)ccc2C)cc1 [Compound 329]
- IC50: 1 to 10 µM

Compound: Cc1ccc(NC(=O)Nc2ccc(C(F)(F)F)cc2Cl)cc1S(=O)(=O)Nc1ccc(Cl)cc1 [Compound 231]
- IC50: 1 to 10 µM

Compound: Cc1ccc(NC(=O)Nc2c(C)cc(Br)cc2C)cc1S(=O)(=O)Nc1ccc(Cl)cc1 [Compound 239]
- IC50: 1 to 10 µM

Compound: Cc1ccc(NC(=O)Nc2ccc3c(c2)OCO3)cc1S(=O)(=O)Nc1ccc(Cl)cc1 [Compound 292]
- IC50: 1 to 10 µM

Compound: Cc1ccc(NC(=O)Nc2ccc(C)c(S(=O)(=O)Nc3ccc(Cl)cc3)c2)cc1[N+](=O)[O-] [Compound 263]
- IC50: 1 to 10 µM

Compound: Cc1ccc(NC(=O)Nc2cccc(C(F)(F)F)c2)cc1S(=O)(=O)Nc1cccc(F)c1 [Compound 296]
- IC50: 1 to 10 µM

Compound: Cc1ccc(NC(=O)Nc2c(C)cccc2C)cc1S(=O)(=O)Nc1ccc(Cl)cc1 [Compound 257]
- IC50: 1 to 10 µM

Compound: Cc1ccc(NC(=O)Nc2cccc(C(F)(F)F)c2)cc1S(=O)(=O)Nc1cccc(Cl)c1 [Compound 294]
- IC50: 1 to 10 µM

Compound: Cc1ccc(NC(=O)Nc2ccc(Cl)cc2)cc1S(=O)(=O)Nc1ccccc1 [Compound 205]
- IC50: 1 to 10 µM

Compound: Cc1ccc(NC(=O)Nc2cccc(C(F)(F)F)c2)cc1S(=O)(=O)Nc1ccc(F)c(Cl)c1 [Compound 299]
- IC50: 1 to 10 µM

Compound: CCOC(=O)CNc1ccc(NS(=O)(=O)c2cc(NC(=O)Nc3cccc(C(F)(F)F)c3)ccc2C)cc1 [Compound 310]
- IC50: 1 to 10 µM

Compound: Cc1ccc(NC(=O)Nc2ccc(C)c(S(=O)(=O)Nc3ccc(Cl)cc3)c2)cc1Cl [Compound 235]
- IC50: 1 to 10 µM

Compound: COc1ccc(OC)c(NC(=O)Nc2ccc(C)c(S(=O)(=O)Nc3ccc(Cl)cc3)c2)c1 [Compound 268]
- IC50: 1 to 10 µM

Compound: Cc1ccc(NC(=O)Nc2cccc(C(F)(F)F)c2)cc1S(=O)(=O)Nc1cccc(O)c1 [compound 303]
- IC50: 1 to 10 µM

Compound: Cc1ccc(NC(=O)NCc2ccc(Cl)cc2Cl)cc1S(=O)(=O)Nc1ccc(Cl)cc1 [Compound 280]
- IC50: 1 to 10 µM

Compound: Cc1ccc(NC(=O)Nc2cccc(Cl)c2)cc1S(=O)(=O)Nc1ccc(Cl)cc1 [Compound 215]
- IC50: 1 to 10 µM

Compound: Cc1ccc(NC(=O)Nc2c(-c3ccccc3)noc2C)cc1S(=O)(=O)Nc1ccc(Cl)cc1 [Compound 290]
- IC50: 1 to 10 µM

Compound: Cc1ccc(CNC(=O)Nc2ccc(C)c(S(=O)(=O)Nc3ccc(Cl)cc3)c2)cc1 [Compound 283]
- IC50: 1 to 10 µM

Compound: Cc1ccc(NC(=O)Nc2ccc(C(F)(F)F)cc2)cc1S(=O)(=O)Nc1ccccc1 [Compound 207, 2-methyl-N-phenyl-5-(3-(4-(trifluoromethyl)phenyl)ureido)benzenesulfonamide]
- IC50: 1 to 10 µM

Compound: Cc1ccc(NC(=O)NCc2cccc(F)c2)cc1S(=O)(=O)Nc1ccc(Cl)cc1 [Compound 279]
- IC50: 1 to 10 µM

Compound: Cc1ccc(NC(=O)Nc2ccccc2F)cc1S(=O)(=O)Nc1ccc(Cl)cc1 [Compound 218]
- IC50: 1 to 10 µM

Compound: CCOC(=O)COc1ccc(NS(=O)(=O)c2cc(NC(=O)Nc3cccc(C(F)(F)F)c3)ccc2C)cc1 [Compound 308]
- IC50: 1 to 10 µM

Compound: Cc1ccc(NC(=O)Nc2cccc(C(F)(F)F)c2)cc1S(=O)(=O)Nc1ccc(C(=O)O)cc1 [Compound 312]
- IC50: 1 to 10 µM

Compound: Cc1ccc(NC(=O)Nc2cc(Cl)ccc2[N+](=O)[O-])cc1S(=O)(=O)Nc1ccc(Cl)cc1 [Compound 243]
- IC50: 1 to 10 µM

Compound: Cc1ccc(NC(=O)Nc2ccc(C(C)(C)C)cc2)cc1S(=O)(=O)Nc1ccc(Cl)cc1 [Compound 256]
- IC50: 1 to 10 µM

Compound: Cc1ccc(NC(=O)Nc2ccc(F)cc2)cc1S(=O)(=O)Nc1ccc(Cl)cc1 [Compound 219]
- IC50: 1 to 10 µM

Compound: Cc1ccc(NC(=O)Nc2ccc(Br)cc2)cc1S(=O)(=O)Nc1ccc(Cl)cc1 [Compound 217]
- IC50: 1 to 10 µM

Compound: Cc1ccc(NC(=O)Nc2cccc(C(F)(F)F)c2)cc1S(=O)(=O)Nc1cc(F)c(F)cc1F [Compound 301]
- IC50: 1 to 10 µM

Compound: Cc1ccc(NC(=O)Nc2ccc(C(F)(F)F)cc2)cc1S(=O)(=O)Nc1ccc(Cl)cc1 [Compound 222, N-(4-chlorophenyl)-2-methyl-5-(3-(4-(trifluoromethyl)phenyl)ureido)benzenesulfonamide]
- IC50: 1 to 10 µM

Compound: CC(=O)n1ccc2cc(NS(=O)(=O)c3cc(NC(=O)Nc4cccc(C(F)(F)F)c4)ccc3C)ccc21 [Compound 318]
- IC50: 1 to 10 µM

Compound: Cc1ccc(NC(=O)NCc2ccc(Br)cc2)cc1S(=O)(=O)Nc1ccc(Cl)cc1 [Compound 277]
- IC50: 1 to 10 µM

Compound: Cc1ccc(NC(=O)Nc2cccc(C(F)(F)F)c2)cc1S(=O)(=O)Nc1ccc(C#N)cc1 [Compound 311]
- IC50: 1 to 10 µM

Compound: COC(=O)c1cccc(NC(=O)Nc2ccc(C)c(S(=O)(=O)Nc3ccc(Cl)cc3)c2)c1 [Compound 276]
- IC50: 1 to 10 µM

Compound: Cc1ccc(NC(=O)Nc2ccc3c(c2)CCO3)cc1S(=O)(=O)Nc1ccc(Cl)cc1 [Compound 291]
- IC50: 1 to 10 µM

Compound: COc1cc([N+](=O)[O-])ccc1NC(=O)Nc1ccc(C)c(S(=O)(=O)Nc2ccc(Cl)cc2)c1 [Compound 272]
- IC50: 1 to 10 µM

Compound: COc1cc(OC)c(NC(=O)Nc2ccc(C)c(S(=O)(=O)Nc3ccc(Cl)cc3)c2)cc1Cl [Compound 271]
- IC50: 1 to 10 µM

Compound: Cc1cccc(NC(=O)Nc2ccc(C)c(S(=O)(=O)Nc3ccc(Cl)cc3)c2)c1 [Compound 249]
- IC50: 1 to 10 µM

Compound: Cc1ccc(NC(=O)Nc2cccc(C(F)(F)F)c2)cc1S(=O)(=O)Nc1ccc2c(c1)OCCO2 [Compound 315, N-(2,3-dihydrobenzo[b][1,4]dioxin-6-yl)-2-methyl-5-(3-(3(trifluoromethyl)phenyl)ureido)benzenesulfonamide]
- IC50: 1 to 10 µM

Compound: Cc1ccc(NC(=O)Nc2ccc([N+](=O)[O-])cc2Cl)cc1S(=O)(=O)Nc1ccc(Cl)cc1 [Compound 244]
- IC50: 1 to 10 µM

Compound: Cc1ccc(NC(=O)Nc2ccc(C(C)C)cc2)cc1S(=O)(=O)Nc1ccc(Cl)cc1 [Compound 254]
- IC50: 1 to 10 µM

Compound: N-(1H-benzo[d]imidazol-7-yl)-2-methyl-5-(3-(3-(trifluoromethyl)phenyl)ureido)benzenesulfonamide [Compound 319]
- IC50: 1 to 10 µM

Compound: Cc1ccc(NC(=O)Nc2cccc(C(F)(F)F)c2)cc1S(=O)(=O)Nc1ccc(OS(C)(=O)=O)cc1 [Compound 306]
- IC50: 1 to 10 µM

Compound: CCOC(=O)C(C)Oc1ccc(NS(=O)(=O)c2cc(NC(=O)Nc3ccc(C(F)(F)F)cc3)ccc2C)cc1 (centres unmarked) [Compound 328]
- IC50: 1 to 10 µM

Compound: Cc1ccc(NC(=O)Nc2c(C)cccc2Cl)cc1S(=O)(=O)Nc1ccc(Cl)cc1 [Compound 234]
- IC50: 1 to 10 µM

Compound: Cc1ccc(NC(=O)Nc2cccc(C(F)(F)F)c2)cc1S(=O)(=O)Nc1ccc2cc[nH]c2c1 [Compound 316, N-(1H-indol-6-yl)-2-methyl-5-(3-(3-(trifluoromethyl)phenyl)ureido)benzenesulfonamide]
- IC50: 1 to 10 µM

Compound: Cc1ccc(NC(=O)Nc2ccc(OC(F)(F)F)cc2)cc1S(=O)(=O)Nc1ccc(Cl)cc1 [Compound 225, N-(4-chlorophenyl)-2-methyl-5-(3-(4-(trifluoromethoxy)phenyl)ureido)benzenesulfonamide]
- IC50: 1 to 10 µM

Compound: Cc1ccc(NC(=O)Nc2ccc(I)cc2)cc1S(=O)(=O)Nc1ccc(Cl)cc1 [Compound 220]
- IC50: 1 to 10 µM

Compound: Cc1ccc(NC(=O)NC2C[C@H]2c2ccccc2)cc1S(=O)(=O)Nc1ccc(Cl)cc1 (some centres unmarked) [Compound 286]
- IC50: 1 to 10 µM

Compound: Cc1ccc(NC(=O)Nc2ccc(F)cc2F)cc1S(=O)(=O)Nc1ccc(Cl)cc1 [Compound 229]
- IC50: 1 to 10 µM

Compound: Cc1ccc(NC(=O)Nc2ccc(C(F)(F)F)cc2)cc1S(=O)(=O)Nc1cccc(CCc2ccccc2)c1 [Compound 332]
- IC50: 1 to 10 µM

Compound: Cc1ccc(NC(=O)Nc2ccc(F)cc2[N+](=O)[O-])cc1S(=O)(=O)Nc1ccc(Cl)cc1 [Compound 245]
- IC50: 1 to 10 µM
